Results taken from publication PMC6858373 (Scientific Reports, 2019).
Counter-ions that a name gives are not always drawn. Like-named read-outs stand apart in the source and are kept apart here.

Columns and labels:
Clone V cells = conditions: human
[1] = biological target: full-length P. pyralis luciferase (Photinus pyralis, UniProt P08659, K549A/L550V/N119G/N50D/S548I); assay type: cell-based
[2] = biological target: T1, FGF14:Nav1.6 C-tail complex (Homo sapiens, UniProt Q92915+Q9UQD0); experiment: Split-luciferase complementation assay (LCA) in Clone V double stable HEK293 cells; assay type: cell-based; conditions: for Split Luciferase Assay Z-score Set 1 / Split Luciferase Assay Z-score Set 2: normalized to on-plate 0.3% DMSO controls
T1 construct: polymerase chain reaction (PCR) amplification of the FGF14 open reading frame (nt 1–855); C-terminal fragment of Nav1.6 (amino acids 1763–1976) fused with CD4ΔC-tail (amino acids 1–395); expressed in transfected cells

in vitro = conditions: human
[3] = CC_NCI screening, normalized to on-plate 0.3% DMSO controls
[4] = CC_NCI screening, biological replicate Set 1
[5] = CC_NCI screening, biological replicate Set 2
[6] = CC_NCI screening, biological replicate Set 1, normalized to on-plate 0.3% DMSO controls (n=16 per plate)
[7] = CC_NCI screening, biological replicate Set 2, normalized to on-plate 0.3% DMSO controls (n=16 per plate)
[8] = average of Set 1 and Set 2, normalized to 0.3% DMSO controls

full-length P. pyralis luciferase, sequence (P08659 whole entry N50D/N119G/S548I/K549A/L550V, looked up): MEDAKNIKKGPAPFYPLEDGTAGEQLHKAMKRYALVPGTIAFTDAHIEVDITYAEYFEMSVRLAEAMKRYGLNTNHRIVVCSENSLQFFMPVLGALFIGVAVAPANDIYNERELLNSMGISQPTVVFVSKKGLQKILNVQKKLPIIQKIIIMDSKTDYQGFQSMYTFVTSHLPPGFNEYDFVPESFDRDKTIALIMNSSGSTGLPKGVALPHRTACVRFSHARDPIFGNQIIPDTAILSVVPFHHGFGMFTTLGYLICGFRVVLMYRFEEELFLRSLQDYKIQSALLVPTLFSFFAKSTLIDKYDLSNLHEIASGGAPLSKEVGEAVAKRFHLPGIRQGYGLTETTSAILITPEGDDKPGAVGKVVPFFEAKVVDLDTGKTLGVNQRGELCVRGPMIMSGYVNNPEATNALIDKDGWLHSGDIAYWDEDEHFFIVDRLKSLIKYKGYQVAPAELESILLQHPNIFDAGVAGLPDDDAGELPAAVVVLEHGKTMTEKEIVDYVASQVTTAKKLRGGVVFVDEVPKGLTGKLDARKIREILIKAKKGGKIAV
T1 sequence (Q92915 1-252 isoform Q92915-2): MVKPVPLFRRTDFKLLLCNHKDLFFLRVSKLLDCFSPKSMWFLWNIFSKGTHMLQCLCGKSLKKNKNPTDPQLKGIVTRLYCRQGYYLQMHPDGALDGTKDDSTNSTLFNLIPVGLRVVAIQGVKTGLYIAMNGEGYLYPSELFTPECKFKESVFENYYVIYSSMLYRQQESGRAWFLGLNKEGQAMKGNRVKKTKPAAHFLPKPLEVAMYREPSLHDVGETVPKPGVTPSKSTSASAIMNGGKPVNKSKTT
T1 sequence (Q9UQD0 1763-1976 limits assumed): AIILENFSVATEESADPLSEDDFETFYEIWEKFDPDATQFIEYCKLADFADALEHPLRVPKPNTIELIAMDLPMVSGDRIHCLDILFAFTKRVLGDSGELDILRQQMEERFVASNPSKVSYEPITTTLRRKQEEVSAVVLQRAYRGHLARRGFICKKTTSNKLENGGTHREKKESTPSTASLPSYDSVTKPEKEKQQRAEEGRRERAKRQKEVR

| SMILES | Toxicity Assay Z-score (CTB cell viability) (Clone V cells; 16 h, 30 µM) | Luciferase Assay % Lum (full-length luciferase counter-screen) [1, 3] [%] | Luciferase Assay Z-score (full-length luciferase counter-screen) [1, 3] | Split Luciferase Assay % Lum Set 1 [2] [%] | Split Luciferase Assay %Lum Avg [2] [%] | Split Luciferase Assay %Lum Set 2 [2] [%] | Split Luciferase Assay Z-score Set 1 [2, 4] | Split Luciferase Assay Z-score Set 2 [2, 5] | viability at 16 h, 30 µM (in vitro; Clone V cells) [%] | Toxicity Assay Z-score (CTB cell viability) (Clone V cells) | Split Luciferase Assay % Lum Set 1 [2, 6] [%] | Split Luciferase Assay %Lum Set 2 [2, 7] [%] | Split Luciferase Assay %Lum Avg [2, 8] [%] | viability (in vitro) [%] | viability at 16 h, 30 µM (in vitro) [%] | Luciferase Assay % Lum (full-length luciferase counter-screen) [1] [%] | Luciferase Assay Z-score (full-length luciferase counter-screen) [1] | EC50 [2] [µM] | Z-score (LCA primary screening) ([2]; 30 µM, 384-well, average of primary screening (n = 2), vs on-plate 0.3% DMSO) | EMax (% Luminescence) ([2]; agonists, Clone V cells, 384-well, normalized to DMSO) |
| --- | --- | --- | --- | --- | --- | --- | --- | --- | --- | --- | --- | --- | --- | --- | --- | --- | --- | --- | --- | --- |
| S=P(N1CC1)(N1CC1)N1CC1 [Thiotepa] | 1.01 | 95.81 | -0.54 | 104.69 | 115.28 | 125.88 | 0.38 | 2.11 | 107 | – | – | – | – | – | – | – | – | – | – | – |
| COc1cc(O)c2c(c1)[C@H]1O[C@@H]1C[C@H](O)[C@H](O)C(=O)/C=C\C[C@H](C)OC2=O [HYPOTHEMYCIN] | – | 72.32 | -3.54 | – | – | – | -3.75 | -4.16 | – | 0.42 | 53.59 | 48.89 | 51.24 | 103 | – | – | – | – | – | – |
| CO[C@@]12[C@H](COC(N)=O)C3=C(C(=O)C(C)=C(N)C3=O)N1C[C@@H]1N[C@@H]12 [Mitomycin] | – | 110.98 | 1.41 | – | – | – | 0.73 | -0.01 | – | 2.45 | 109.04 | 99.87 | 104.45 | 118 | – | – | – | – | – | – |
| O=C(NCCCNc1nc(Nc2cccc(NC(=O)N3CCCC3)c2)ncc1I)c1cccs1 [BX 795] | 0.47 | 70.68 | -3.76 | – | – | – | -4.28 | -5.85 | – | – | 47.07 | 28.09 | 37.58 | – | 103 | – | – | – | – | – |
| Nc1ccn([C@@H]2O[C@H](CO)[C@@H](O)[C@@H]2O)c(=O)n1 [Cytarabine hydrochloride] | 1.12 | 93.77 | -0.80 | – | – | – | -0.50 | 0.16 | – | – | 93.82 | 101.95 | 97.88 | – | 108 | – | – | – | – | – |
| O=NN(CCCl)C(=O)NCCCl [Carmustine] | – | 102.90 | 0.37 | 106.86 | 104.93 | 102.99 | 0.55 | 0.24 | – | 2.39 | – | – | – | 117 | – | – | – | – | – | – |
| CCCCCOC(=O)Nc1nc(=O)n([C@@H]2O[C@H](C)[C@@H](O)[C@H]2O)cc1F [Capecitabine] | 1.00 | 100.06 | 0.01 | – | – | – | 1.96 | 1.17 | 107 | – | 124.26 | 114.43 | 119.35 | – | – | – | – | – | – | – |
| Oc1cccc(-c2nc(N3CCOCC3)c3oc4ncccc4c3n2)c1 [PI-103] | 2.64 | – | 0.79 | – | – | – | 0.91 | -0.43 | 119 | – | 111.21 | 94.67 | 102.94 | – | – | – | – | – | – | – |
| CCCCC(=O)OCC(=O)[C@]1(O)Cc2c(O)c3c(c(O)c2[C@@H](O[C@H]2C[C@H](NC(=O)C(F)(F)F)[C@H](O)[C@H](C)O2)C1)C(=O)c1c(OC)cccc1C3=O [Valrubicin] | 0.60 | – | – | – | – | – | 2.84 | 1.17 | – | – | 135.13 | 114.43 | 124.78 | – | 104 | 92.36 | -0.98 | – | – | – |
| Cc1c[nH]c(-c2cnc(NCCNc3ccc(C#N)cn3)nc2-c2ccc(Cl)cc2Cl)n1 [CHIR 99021] | 1.07 | 70.15 | -3.82 | – | – | – | -4.98 | -5.60 | – | – | 38.37 | 31.21 | 34.79 | – | 108 | – | – | – | – | – |
| O=P1(NCCCl)OCCCN1CCCl (stereo not shown) [Ifosfamide] | – | 96.59 | -0.44 | – | – | – | 1.26 | -0.01 | – | 0.82 | 115.56 | 99.87 | 107.71 | 106 | – | – | – | – | – | – |
| CS(=O)(=O)OCCCCOS(C)(=O)=O [Busulfan] | 0.92 | 97.98 | -0.26 | – | – | – | -0.50 | 1.01 | 107 | – | 93.82 | 112.35 | 103.09 | – | – | – | – | – | – | – |
| CS(=O)(=O)c1ccc(C(=O)Nc2ccc(Cl)c(-c3ccccn3)c2)c(Cl)c1 [GDC-0449] | 0.95 | 95.45 | -0.58 | – | – | – | 3.10 | 2.02 | – | – | – | 124.84 | 131.61 | – | 107 | – | – | – | – | – |
| Nc1ncn([C@H]2C[C@H](O)[C@@H](CO)O2)c(=O)n1 [Decitabine, reference compound] | 0.87 | 110.67 | 1.37 | – | – | – | 6.88 | 7.95 | 106 | – | 185.13 | 197.66 | 191.40 | – | – | – | – | 28.8 | 7.41 | 191.40 |
| CNNCc1ccc(C(=O)NC(C)C)cc1 [Procarbazine hydrochloride] | 1.21 | – | – | – | – | – | 1.52 | -0.26 | – | – | 118.82 | 96.75 | 107.78 | – | 109 | 99.34 | -0.08 | – | – | – |
| CC[C@]1(O)C[C@@H]2CN(CCc3c([nH]c4ccccc34)[C@@](C(=O)OC)(c3cc4c(cc3OC)N(C)[C@H]3[C@@](O)(C(=O)OC)[C@H](OC(C)=O)[C@]5(CC)C=CCN6CC[C@]43[C@@H]65)C2)C1 [Vinblastine sulfate] | 1.05 | 109.75 | 1.25 | – | – | – | 9.52 | 5.32 | – | – | 217.75 | 165.41 | 191.58 | – | 108 | – | – | – | – | – |
| C[C@@H](CN1CC(=O)NC(=O)C1)N1CC(=O)NC(=O)C1 [Dexrazoxane] | 2.09 | – | – | – | – | – | 1.26 | 1.51 | – | – | 115.56 | 118.60 | 117.08 | – | 115 | 109.07 | 1.16 | – | – | – |
| NC(=O)Nc1cc(-c2cccc(F)c2)sc1C(=O)N[C@H]1CCCNC1 [AZD 7762] | – | 92.74 | -0.93 | – | – | – | -1.38 | -2.63 | – | 0.35 | 82.95 | 67.62 | 75.28 | 102 | – | – | – | – | – | – |
